Results published in ChEMBL document CHEMBL3351363 (J Med Chem, 2014).

Assays:
[1] = target: T1, Muscarinic acetylcholine receptor M1 (Homo sapiens) (UniProt P11229); assay: Agonist activity at human M1 receptor expressed in HEK293T cells by BRET based beta-arrestin engagement assay relative to carbachol; type: cell-based; settings: HEK-293T
T1 sequence (whole entry): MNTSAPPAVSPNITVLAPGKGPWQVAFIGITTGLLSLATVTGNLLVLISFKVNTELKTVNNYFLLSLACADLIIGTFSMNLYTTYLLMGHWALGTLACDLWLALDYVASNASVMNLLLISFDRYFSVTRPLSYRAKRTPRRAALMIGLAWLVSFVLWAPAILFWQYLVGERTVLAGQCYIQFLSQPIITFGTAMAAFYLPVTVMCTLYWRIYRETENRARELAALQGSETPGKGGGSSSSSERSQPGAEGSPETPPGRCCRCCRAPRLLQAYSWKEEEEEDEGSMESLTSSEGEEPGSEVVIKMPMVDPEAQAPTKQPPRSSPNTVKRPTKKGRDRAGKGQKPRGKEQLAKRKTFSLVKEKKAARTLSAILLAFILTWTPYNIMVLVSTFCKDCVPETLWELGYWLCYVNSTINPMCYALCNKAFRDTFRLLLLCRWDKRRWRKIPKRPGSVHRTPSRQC

[2] = target: T2, Muscarinic acetylcholine receptor M4 (Homo sapiens) (UniProt P08173); assay: Agonist activity at human M4 receptor expressed in HEK293T cells by BRET based Gq protein engagement assay relative to carbachol; type: cell-based; settings: HEK-293T
T2 sequence (whole entry): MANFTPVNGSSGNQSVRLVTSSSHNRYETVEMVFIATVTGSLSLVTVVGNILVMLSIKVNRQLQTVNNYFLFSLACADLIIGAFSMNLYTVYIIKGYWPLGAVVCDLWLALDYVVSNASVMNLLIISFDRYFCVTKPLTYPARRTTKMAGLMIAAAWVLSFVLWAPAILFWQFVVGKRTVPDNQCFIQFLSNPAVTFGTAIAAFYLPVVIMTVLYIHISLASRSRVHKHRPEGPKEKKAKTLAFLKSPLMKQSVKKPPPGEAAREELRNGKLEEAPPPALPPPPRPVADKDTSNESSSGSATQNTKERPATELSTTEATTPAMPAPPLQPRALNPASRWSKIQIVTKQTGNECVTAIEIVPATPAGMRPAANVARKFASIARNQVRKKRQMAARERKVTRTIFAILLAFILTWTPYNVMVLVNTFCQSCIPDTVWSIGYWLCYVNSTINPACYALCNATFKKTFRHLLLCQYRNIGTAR

[3] = target: T2, Muscarinic acetylcholine receptor M4 (Homo sapiens); assay: Antagonist activity at human M4 receptor expressed in HEK293T cells assessed as inhibition of carbachol-induced response by beta-arrestin engagement assay relative to untreated control; type: cell-based; settings: HEK-293T
[4] = target: Muscarinic acetylcholine receptor M3 (Homo sapiens, UniProt P20309); assay: Displacement of [3H]NMS from human M3 receptor expressed in CHO cells by microplate scintillation counting based radioligand binding assay; type: cell-based
Sequence of Muscarinic acetylcholine receptor M3 (P20309 whole entry): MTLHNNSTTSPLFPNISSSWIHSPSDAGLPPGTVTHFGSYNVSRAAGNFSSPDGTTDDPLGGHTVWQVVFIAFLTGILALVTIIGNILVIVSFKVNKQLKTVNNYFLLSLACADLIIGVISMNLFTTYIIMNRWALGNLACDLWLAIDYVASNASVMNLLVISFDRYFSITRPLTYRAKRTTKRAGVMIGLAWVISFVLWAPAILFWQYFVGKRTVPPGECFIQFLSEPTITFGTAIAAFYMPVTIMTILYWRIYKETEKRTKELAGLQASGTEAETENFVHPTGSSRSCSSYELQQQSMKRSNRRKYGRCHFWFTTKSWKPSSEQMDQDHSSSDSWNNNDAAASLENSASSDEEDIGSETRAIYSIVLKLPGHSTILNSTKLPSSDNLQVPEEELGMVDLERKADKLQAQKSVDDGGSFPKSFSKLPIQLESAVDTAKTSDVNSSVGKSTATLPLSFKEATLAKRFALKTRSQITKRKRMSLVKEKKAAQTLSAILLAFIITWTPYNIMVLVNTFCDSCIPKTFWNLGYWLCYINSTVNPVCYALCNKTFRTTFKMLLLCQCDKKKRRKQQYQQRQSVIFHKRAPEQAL

[5] = target: T2, Muscarinic acetylcholine receptor M4 (Homo sapiens); assay: Agonist activity at human M4 receptor expressed in HEK293T cells by BRET based Gi protein activation assay relative to carbachol; settings: HEK-293T
[6] = target: T1, Muscarinic acetylcholine receptor M1 (Homo sapiens); assay: Agonist activity at human M1 receptor expressed in HEK293T cells by BRET based Gq protein activation assay relative to carbachol; type: cell-based; settings: HEK-293T
[7] = target: T3, Muscarinic acetylcholine receptor M1 (Homo sapiens, UniProt P11229); assay: Agonist activity at human M1 receptor expressed in HEK293T cells by BRET based Gq protein activation assay; type: cell-based, HEK-293T
T3 sequence (P11229 whole entry): T1 sequence (whole entry)

[8] = target: T2, Muscarinic acetylcholine receptor M4 (Homo sapiens); assay: Antagonist activity at human M4 receptor expressed in HEK293T cells assessed as inhibition of carbachol-induced response by BRET based Gq protein engagement assay relative to untreated control; type: cell-based; settings: HEK-293T
[9] = target: T2, Muscarinic acetylcholine receptor M4 (Homo sapiens); assay: Antagonist activity at human M4 receptor expressed in HEK293T cells assessed as inhibition of carbachol-induced response by BRET based Gi protein activation assay relative to untreated control; settings: HEK-293T
[10] = target: T4, Muscarinic acetylcholine receptor M5 (Homo sapiens, UniProt P08912); assay: Displacement of [3H]NMS from human M5 receptor expressed in CHO cells by microplate scintillation counting based radioligand binding assay; type: cell-based
T4 sequence (P08912 whole entry): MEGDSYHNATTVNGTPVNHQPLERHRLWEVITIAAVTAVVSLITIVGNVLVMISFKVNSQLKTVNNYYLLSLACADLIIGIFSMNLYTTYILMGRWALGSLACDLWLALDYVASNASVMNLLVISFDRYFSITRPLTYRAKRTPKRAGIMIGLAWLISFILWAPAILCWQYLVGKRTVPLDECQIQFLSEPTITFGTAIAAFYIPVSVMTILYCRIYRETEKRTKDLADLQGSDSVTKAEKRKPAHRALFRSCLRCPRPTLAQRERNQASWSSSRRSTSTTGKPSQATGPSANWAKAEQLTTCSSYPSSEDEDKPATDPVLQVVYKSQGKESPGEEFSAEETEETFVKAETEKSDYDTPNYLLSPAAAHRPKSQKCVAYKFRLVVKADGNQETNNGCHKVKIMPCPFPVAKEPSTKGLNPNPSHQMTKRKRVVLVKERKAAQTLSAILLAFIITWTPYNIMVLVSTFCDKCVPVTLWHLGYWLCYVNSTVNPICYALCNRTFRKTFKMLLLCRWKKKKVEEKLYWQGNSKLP

[11] = target: T5, Muscarinic acetylcholine receptor M4 (Homo sapiens, UniProt P08173); assay: Displacement of [3H]NMS from human M4 receptor expressed in CHO cells by microplate scintillation counting based radioligand binding assay; type: cell-based
T5 sequence (P08173 whole entry): T2 sequence (whole entry)

[12] = target: T3, Muscarinic acetylcholine receptor M1; assay: Displacement of [3H]NMS from human M1 receptor expressed in CHO cells by microplate scintillation counting based radioligand binding assay; type: cell-based
[13] = target: T3, Muscarinic acetylcholine receptor M1
[14] = target: T1, Muscarinic acetylcholine receptor M1 (Homo sapiens); assay: Agonist activity at human M1 receptor expressed in HEK293T cells by BRET based Gq protein engagement assay relative carbachol; type: cell-based; settings: HEK-293T
[15] = target: T3, Muscarinic acetylcholine receptor M1; assay: Agonist activity at human M1 receptor expressed in HEK293T cells by BRET based Gq protein engagement assay
[16] = target: T5, Muscarinic acetylcholine receptor M4; assay: Agonist activity at human M4 receptor expressed in HEK293T cells by BRET based Gq protein engagement assay
[17] = target: T5, Muscarinic acetylcholine receptor M4; assay: Antagonist activity at human M4 receptor expressed in HEK293T cells assessed as inhibition of carbachol-induced response by BRET based Gq protein engagement assay; type: cell-based, HEK-293T
[18] = target: T5, Muscarinic acetylcholine receptor M4; assay: Agonist activity at human M4 receptor expressed in HEK293T cells by BRET based Gq protein activation assay
[19] = target: T3, Muscarinic acetylcholine receptor M1; type: cell-based, HEK-293T
[20] = target: T5, Muscarinic acetylcholine receptor M4; assay: Antagonist activity at human M4 receptor expressed in HEK293T cells assessed as inhibition of carbachol-induced response by beta-arrestin engagement assay; type: cell-based, HEK-293T
[21] = target: T3, Muscarinic acetylcholine receptor M1; assay: Agonist activity at human M1 receptor expressed in HEK293T cells by BRET based beta-arrestin engagement assay
[22] = target: T6, Muscarinic acetylcholine receptor M2 (Homo sapiens, UniProt P08172); assay: Displacement of [3H]NMS from human M2 receptor expressed in CHO cells by microplate scintillation counting based radioligand binding assay; type: cell-based
T6 sequence (P08172 whole entry): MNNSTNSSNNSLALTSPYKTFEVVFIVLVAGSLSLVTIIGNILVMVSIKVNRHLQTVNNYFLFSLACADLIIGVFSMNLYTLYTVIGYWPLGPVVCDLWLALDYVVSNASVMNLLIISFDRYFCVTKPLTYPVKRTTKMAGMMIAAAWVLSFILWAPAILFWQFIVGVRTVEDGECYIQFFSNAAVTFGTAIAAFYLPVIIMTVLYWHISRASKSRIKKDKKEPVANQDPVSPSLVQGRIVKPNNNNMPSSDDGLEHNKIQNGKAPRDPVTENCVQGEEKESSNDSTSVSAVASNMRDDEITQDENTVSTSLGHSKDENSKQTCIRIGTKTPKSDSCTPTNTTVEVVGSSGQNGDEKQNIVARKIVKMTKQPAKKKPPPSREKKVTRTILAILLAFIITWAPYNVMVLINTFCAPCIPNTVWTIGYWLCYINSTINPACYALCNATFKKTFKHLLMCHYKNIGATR

[23] = target: T3, Muscarinic acetylcholine receptor M1; type: cell-based, HEK-293T; remark: listed apart in the source
[24] = target: T5, Muscarinic acetylcholine receptor M4
[25] = target: T2, Muscarinic acetylcholine receptor M4 (Homo sapiens); assay: Agonist activity at human M4 receptor expressed in HEK293T cells by BRET based beta-arrestin engagement assay relative to carbachol; type: cell-based; settings: HEK-293T

Structure (SMILES)	Emax [1]	Emax [2]	Imax [3]	Ki [4]	Emax [5]	Emax [6]	EC50 [7]	Imax [8]	Imax [9]	Ki [10]	Ki [11]	Ki [12]	IC50 [13]	Emax [14]	EC50 [16]	IC50 [17]	EC50 [18]	IC50 [19]	IC50 [20]	Ki [22]	other results
CN1CCC=C(c2nsnc2OCCCCCCCC2CCN(CCCN3C(=O)CCc4ccccc43)CC2)C1	42%	18%	14%	0.000794 µM	40%	25%	0.0417 µM	92%	60%	0.00229 µM	0.000891 µM	0.000912 µM	0.0219 µM	42%	0.0186 µM	0.407 µM	0.0355 µM	0.38 µM	0.145 µM	0.00138 µM	EC50 [15]: 0.166 µM; EC50 [21]: 0.174 µM; IC50 [23]: 0.741 µM; IC50 [24]: 1.86 µM
CN1CCC=C(c2nsnc2OCCCCCC2CCN(CCCN3C(=O)CCc4ccccc43)CC2)C1	–	< 0%	< 100%	0.00468 µM	27%	13%	0.0204 µM	< 100%	< 100%	0.00562 µM	0.00794 µM	0.00676 µM	4.27 µM	< 0%	7.08 µM	0.447 µM	0.0309 µM	5.37 µM	0.355 µM	0.011 µM	IC50 [23]: 0.646 µM; IC50 [24]: 0.631 µM
CCCCCCOc1nsnc1C1=CCCN(C)C1 [XANOMELINE]	95%	–	–	0.00776 µM	94%	77%	–	–	–	–	–	–	–	54%	–	–	–	–	–	–	Emax [25]: 42%
